Laboratory results: patent publication US8648059B2, “Use of epicatechin and derivatives and salts thereof for cardiac protection of ischemic myocardium and to ameliorate adverse cardiac remodeling” (The Regents of the University of California, priority 2008, dated 2014)

Legend:
Assay type in all cases: in vivo, rat
Sprague Dawley rats = assay: IR (30 minutes ischemia) infarct size, single IV therapy 15 min before reperfusion
Procedure: Lateral thoracotamy with 30 minutes ischemia>reperfusion was performed a treated per the groups above 15 min before reperfusion IV in the femoral artery. Animals were humanely sacrificed and the hearts were then section and stained to examine tissue injury.

Sprague-Dawley rats [1] = assay: Ischemia-reperfusion (45 min coronary ligation) infarct size, oral epicatechin pre-treatment (Example 1); conditions: for infarct area: epicatechin 1 mg/kg/day oral
Procedure: (§1) Adult male Sprague-Dawley rats (Harlan, Indianapolis, Ind.) weighing ˜250 g were used. Epicatechin (1 mg/kg/day; Sigma-Aldrich, St. Louis, Mo.) or vehicle (water) was administered orally by gavage once/day beginning 10 days before thoracotomy and continuing until the time of the terminal study (48 h or 3 weeks). A subgroup of “normal” animals were treated with water or epicatechin for 10 day and were used to evaluate the effects of epicatechin on hemodynamics. For 48 hr studies the groups included IR and IR+10 day epicatechin. For 3 week studies, the groups included sham, sham+10 day epicatechin, IR and IR+10 day epicatechin.
Ischemia-reperfusion: Animals were anesthetized by intraperitoneal injection of ketamine (100 mg/kg) and xylazine (10 mg/kg), intubated, and positive-pressure ventilated. Following a left thoracotomy, the left anterior descending coronary artery was ligated for 45 min, (except in shams) released and the suture left in place. The chest was closed and animals allowed to fully recover. Successful occlusion and reperfusion were verified by visual inspection of left ventricle (LV) color. Sham animals were treated identically, except the ligature was not tightened.
Determination of Infarct Size: Terminal study hearts were excised and weighed. In 48 h hearts, the area at risk was determined by the reocclusion of the snare and infusion of trypan blue (0.4%) into the cannulated aorta. Hearts were sectioned at 0 mmHg into five 2 mm rings and stained using triphenyltetrazolium chloride to determine the infarct area. Computer assisted image analysis was used using blinded operators. For 3 week studies hearts were processed as above and sectioned to identify the infarct (i.e. scar) area. The images of unfixed, stained rings were also used to measure internal and external chamber diameters, anterior and septal wall thicknesses.
Statistical Analysis Comparisons between means±S.E.M were analyzed by student's t-tests or one-way ANOVA followed by Bonferroni post-hoc. P<0.05 was considered statistically significant. The investigator who analyzed the data was blinded to what group (control vs. treatment with epicatechin) the animal belonged to.

Sprague-Dawley rats [2] = assay: Hemodynamics in normal, sham and IR rats (Example 1)
Procedure: as §1
(§2) Hemodynamics: All animals were weighed and anesthetized with 5% isoflurane (maintenance at 1-2%). Arterial (carotid) and LV pressures were measured using a micromanometer just prior to sacrifice and data digitally recorded.
Hemodynamics: Hemodynamics (Table 1A) were measured in normal and normal+10 d epicatechin. […] Values shown are mean ±SEM. Statistical analysis was done by ANOVA except where denoted. In the IR group the rats are fed the control and ischemia is induced (by temporary occlusion of the coronary artery). In the IR+epicatechin the rats are given epicatechin and ischemia is induced. […] The purpose of these two groups was to determine baseline hemodynamics.

Sprague-Dawley rats [3] = assay: Cardiac morphometry 3 weeks after IR (Example 1); conditions: epicatechin
Procedure: Adult male Sprague-Dawley rats (Harlan, Indianapolis, Ind.) weighing ˜250 g were used. […] Sigma-Aldrich, St. Louis, Mo.) or vehicle (water) was administered orally by gavage once/day beginning 10 days before thoracotomy and continuing until the time of the terminal study (48 h or 3 weeks). A subgroup of “normal” animals were treated with water or epicatechin for 10 day and were used to evaluate the effects of epicatechin on hemodynamics. […] Determination of Infarct Size: Terminal study hearts were excised and weighed. In 48 h hearts, the area at risk was determined by the reocclusion of the snare and infusion of trypan blue (0.4%) into the cannulated aorta. […] Computer assisted image analysis was used using blinded operators. For 3 week studies hearts were processed as above and sectioned to identify the infarct (i.e. scar) area. The images of unfixed, stained rings were also used to measure internal and external chamber diameters, anterior and septal wall thicknesses.

Sprague-Dawley rats [4] = assay: Permanent coronary occlusion infarct size (Example 2); conditions: epicatechin 1 mg/kg/day oral
Procedure: Determination of Infarct Size: Terminal study hearts were excised and weighed. In 48 h hearts, the area at risk was determined by the reocclusion of the snare and infusion of trypan blue (0.4%) into the cannulated aorta. […] Computer assisted image analysis was used using blinded operators. For 3 week studies hearts were processed as above and sectioned to identify the infarct (i.e. scar) area. The images of unfixed, stained rings were also used to measure internal and external chamber diameters, anterior and septal wall thicknesses. Adult male Sprague-Dawley rats (Harlan, Indianapolis, Ind.) weighing ˜250 g were used. […] Sigma-Aldrich, St. Louis, Mo.) or vehicle (water) was administered orally by gavage once/day beginning 10 days before thoracotomy and continuing until the time of the terminal study (48 h or 3 weeks). Thoracotomy was performed at day 10. In the sham group, the chest was only opened and closed; no artery was permanently occluded. […] At 48 hours the animals were anesthetized and hemodynamics recorded. The heart was excised and for infarcted animals only the infarct size and heart structure (morphometry) were determined. […] At 3 weeks the animals were anesthetized and hemodynamics recorded. The heart was excised and for infarcted animals only the infarct size and heart structure (morphometry) were determined.

Sprague-Dawley rats [5] = assay: Hemodynamics after permanent coronary occlusion (Example 2); conditions: for LVEDP / LVPSP / MAP: epicatechin; for HR: epicatechin 1 mg/kg/day
Procedure: as §2
Adult male Sprague-Dawley rats (Harlan, Indianapolis, Ind.) weighing ˜250 g were used. Epicatechin (1 mg/kg/day; Sigma-Aldrich, St. Louis, Mo.) or vehicle (water) was administered orally by gavage once/day beginning 10 days before thoracotomy and continuing until the time of the terminal study (48 h or 3 weeks). Thoracotomy was performed at day 10. In the sham group, the chest was only opened and closed; no artery was permanently occluded. For the infarct group, the left anterior descending coronary artery was permanently occluded. In the 48 hour treatment arm, the animals were allowed to heal with treatment of epicatechin at 1 mg/kg/day continued for 48 hours. At 48 hours the animals were anesthetized and hemodynamics recorded. The heart was excised and for infarcted animals only the infarct size and heart structure (morphometry) were determined. In the 3 week treatment arm, the animals were allowed to heal for 3 weeks with daily treatment of epicatechin at 1 mg/kg/day. At 3 weeks the animals were anesthetized and hemodynamics recorded. The heart was excised and for infarcted animals only the infarct size and heart structure (morphometry) were determined.
Methods of determining infarct size, hemodynamics, tissue collection statistical analysis is as described in Example 1.

Sprague-Dawley rats [6] = assay: Cardiac morphometry after permanent coronary occlusion (Example 2); conditions: epicatechin
Procedure: Determination of Infarct Size: Terminal study hearts were excised and weighed. In 48 h hearts, the area at risk was determined by the reocclusion of the snare and infusion of trypan blue (0.4%) into the cannulated aorta. […] Computer assisted image analysis was used using blinded operators. For 3 week studies hearts were processed as above and sectioned to identify the infarct (i.e. scar) area. The images of unfixed, stained rings were also used to measure internal and external chamber diameters, anterior and septal wall thicknesses. Adult male Sprague-Dawley rats (Harlan, Indianapolis, Ind.) weighing ˜250 g were used. […] Sigma-Aldrich, St. Louis, Mo.) or vehicle (water) was administered orally by gavage once/day beginning 10 days before thoracotomy and continuing until the time of the terminal study (48 h or 3 weeks). Thoracotomy was performed at day 10. In the sham group, the chest was only opened and closed; no artery was permanently occluded. For the infarct group, the left anterior descending coronary artery was permanently occluded. In the 48 hour treatment arm, the animals were allowed to heal with treatment of epicatechin at 1 mg/kg/day continued for 48 hours. At 48 hours the animals were anesthetized and hemodynamics recorded. The heart was excised and for infarcted animals only the infarct size and heart structure (morphometry) were determined. In the 3 week treatment arm, the animals were allowed to heal for 3 weeks with daily treatment of epicatechin at 1 mg/kg/day. At 3 weeks the animals were anesthetized and hemodynamics recorded. The heart was excised and for infarcted animals only the infarct size and heart structure (morphometry) were determined.

[7] = 48 h IR, 10 d epicatechin pretreatment

With C[C@H]1c2cccc(O)c2C(O)=C2C(=O)[C@]3(O)C(O)=C(C(N)=O)C(=O)[C@@H](N(C)C)[C@@H]3[C@@H](O)[C@@H]21 [DOX, doxycycline] the “reduction of IR induced infarct size” value (Sprague Dawley rats; at 4 hours, IV 5 mg/kg) was about 10%.

With Oc1cc(O)c2c(c1)O[C@H](c1ccc(O)c(O)c1)[C@H](O)C2 [epicatechin] the infarct area (Sprague-Dawley rats [1]; 3 weeks after IR, control 50.4±5.6%, p=0.05) was 33.7±5.5%, the “reduction in scar size” value (Sprague-Dawley rats [1]; 3 weeks post-IR) was about 33% and the infarct area (Sprague-Dawley rats [1]; 48 h after IR, 10 day pre-treatment, control 51.4±1.8%, P<0.0001) was 26.3±3.4%. The “reduction in infarct size” value (Sprague-Dawley rats [1]; temporary occlusion experiment, FIG. 1, vs vehicle) was about 50%, the “HR (heart rate)” value (Sprague-Dawley rats [2]; 3 wk IR, epicatechin) was 302 ±18^ bpm and the LVEDP (Sprague-Dawley rats [2]; 3 wk IR, epicatechin) was 5.5 ± 1.5 mmHg. The LVPSP (Sprague-Dawley rats [2]; 3 wk IR, epicatechin) was 108 ± 4 mmHg, the MAP (Sprague-Dawley rats [2]; 3 wk IR, epicatechin) was 85 ± 4 mmHg and the “LVEDP (left ventricular end diastolic pressure)” value (Sprague-Dawley rats [2]; [7]) was 4.9 ± 0.5 mmHg. The “LVPSP (left ventricular peak systolic pressure)” value (Sprague-Dawley rats [2]; [7]) was 110 ± 5 mmHg, the “MAP (mean aortic pressure)” value (Sprague-Dawley rats [2]; [7]) was 90 ± 5 mm Hg and the “HR (heart rate)” value (Sprague-Dawley rats [2]; 48 h IR, 10 d epicatechin pretreatment, mean ± SEM) was 373 ± 17 bpm. The “LVEDP (left ventricular end diastolic pressure)” value (Sprague-Dawley rats [2]; normal rats, 10 d epicatechin) was 6.7 ± 1.3 mmHg, the “LVPSP (left ventricular peak systolic pressure)” value (Sprague-Dawley rats [2]; normal rats, 10 d epicatechin) was 112 ± 14 mmHg and the “MAP (mean aortic pressure)” value (Sprague-Dawley rats [2]; normal rats, 10 d epicatechin) was 99 ± 10 mm Hg. The “HR (heart rate)” value (Sprague-Dawley rats [2]; normal rats, 10 d epicatechin 1 mg/kg/day oral, mean ± SEM) was 346 ± 8 bpm, the “HR (heart rate)” value (Sprague-Dawley rats [2]; sham, 3 wk study, epicatechin) was 328 ± 11 bpm and the LVEDP (Sprague-Dawley rats [2]; sham, 3 wk study, epicatechin) was 2.6 ± 0.2 mmHg. For the same molecule, the LVPSP (Sprague-Dawley rats [2]; sham, 3 wk study, epicatechin) was 116 ± 6.2 mmHg, the MAP (Sprague-Dawley rats [2]; sham, 3 wk study, epicatechin) was 92 ± 11 mmHg and the blood pressure (Sprague-Dawley rats [2]; ten days of treatment in noninfarcted animals) was “did not reduce blood pressure”. The AW thickness (Sprague-Dawley rats [3]; 3 wk IR) was 0.41 ± 0.02 mm, the “HW/BW (heart weight/body weight)” value (Sprague-Dawley rats [3]; 3 wk IR) was 4.5 ± 0.2 and the “Inner LV diam.” value (Sprague-Dawley rats [3]; 3 wk IR) was 0.55 ± 0.05 mm. For the same molecule, the “Outer LV diam.” value (Sprague-Dawley rats [3]; 3 wk IR) was 1.6 ± 0.04 mm, the SW thickness (Sprague-Dawley rats [3]; 3 wk IR) was 0.49 ± 0.03 mm and the AW thickness (Sprague-Dawley rats [3]; sham, 3 wk study) was 0.53 ± 0.05 mm. For the same molecule, the “HW/BW (heart weight/body weight)” value (Sprague-Dawley rats [3]; sham, 3 wk study) was 3.2 ± 0.5, the “Inner LV diam.” value (Sprague-Dawley rats [3]; sham, 3 wk study) was 0.52 ± 0.08 mm and the “Outer LV diam.” value (Sprague-Dawley rats [3]; sham, 3 wk study) was 1.6 ± 0.1 mm. The SW thickness (Sprague-Dawley rats [3]; sham, 3 wk study) was 0.47 ± 0.04 mm, the “reduction of infarct size” value (Sprague-Dawley rats [4]; 3 weeks after infarction (permanent occlusion), FIG. 9a) was 33% and the “reduction of infarct size” value (Sprague-Dawley rats [4]; 48 h after permanent coronary occlusion, FIG. 8) was 50%. It also gave an LVEDP (Sprague-Dawley rats [5]; PCO 3 week) of 11 ± 1 mmHg, an LVPSP (Sprague-Dawley rats [5]; PCO 3 week) of 102 ± 3 mmHg and an MAP (Sprague-Dawley rats [5]; PCO 3 week) of 82 ± 2 mmHg. For the same molecule, the HR (Sprague-Dawley rats [5]; PCO 3 week) was 268 ± 10 bpm, the LVEDP (Sprague-Dawley rats [5]; PCO 48 h) was 5.8 ± 1.2 mmHg and the LVPSP (Sprague-Dawley rats [5]; PCO 48 h) was 107 ± 4 mmHg. The MAP (Sprague-Dawley rats [5]; PCO 48 h) was 91 ± 5 mmHg, the HR (Sprague-Dawley rats [5]; PCO 48 h) was 342 ± 8 bpm and the HR (Sprague-Dawley rats [5]; sham, 3 weeks after thoracotomy) was 303 ± 10 bpm. For the same molecule, the LVEDP (Sprague-Dawley rats [5]; sham, 3 weeks) was 6.4 ± 0.9 mmHg, the LVPSP (Sprague-Dawley rats [5]; sham, 3 weeks) was 118 ± 4 mmHg and the MAP (Sprague-Dawley rats [5]; sham, 3 weeks) was 92 ± 4 mmHg. It also gave an LVEDP (Sprague-Dawley rats [5]; sham, 48 h) of 4.3 ± 1.2 mmHg, an LVPSP (Sprague-Dawley rats [5]; sham, 48 h) of 102 ± 2 mmHg and an MAP (Sprague-Dawley rats [5]; sham, 48 h) of 83 ± 2 mmHg. For the same molecule, the HR (Sprague-Dawley rats [5]; sham, 48 h after thoracotomy) was 334 ± 10 bpm, the AW thickness (Sprague-Dawley rats [6]; PCO 3 week) was 0.446 ± 0.04 mm and the HW/BW (Sprague-Dawley rats [6]; PCO 3 week) was 4.4 ± 0.7. For the same molecule, the “Inner LV diam.” value (Sprague-Dawley rats [6]; PCO 3 week) was 0.546 ± 0.046 mm, the “Outer LV diam.” value (Sprague-Dawley rats [6]; PCO 3 week) was 1.495 ± 0.031 mm and the SW thickness (Sprague-Dawley rats [6]; PCO 3 week) was 0.475 ± 0.02 mm. The AW thickness (Sprague-Dawley rats [6]; PCO 48 h) was 0.57 ± 0.03 mm, the SW thickness (Sprague-Dawley rats [6]; PCO 48 h) was 0.57 ± 0.02 mm and the AW thickness (Sprague-Dawley rats [6]; sham, 3 weeks) was 0.58 ± 0.05 mm. The HW/BW (Sprague-Dawley rats [6]; sham, 3 weeks) was 3.82 ± 0.3, the “Inner LV diam.” value (Sprague-Dawley rats [6]; sham, 3 weeks) was 0.490 ± 0.046 mm and the “Outer LV diam.” value (Sprague-Dawley rats [6]; sham, 3 weeks) was 1.469 ± 0.075 mm. For the same molecule, the SW thickness (Sprague-Dawley rats [6]; sham, 3 weeks) was 0.38 ± 0.04 mm, the AW thickness (Sprague-Dawley rats [6]; sham, 48 h) was 0.54 ± 0.05 mm and the SW thickness (Sprague-Dawley rats [6]; sham, 48 h) was 0.33 ± 0.06 mm. The “reduction of IR induced infarct size” value (Sprague Dawley rats; at 48 h, IV 10 mg/kg) was 36%.

In the case of catechin, the area at risk (Sprague Dawley rats; methods of Example 5, FIG. 16) is reported as “no effect” and the infarction size (Sprague Dawley rats; methods of Example 5, FIG. 16) is reported as “no effect”.
